For experiment [1], the system named is obese rat model. Briefly: Weight-reducing pharmacodynamics study in the obese animal model (nutrient feed, 30 days). Format: in vivo, Sprague Dawley rats. The following applies: for Average added multiplier of body weight: (final - initial)/initial average body weight; for Average fat weight coefficient: average fat weight/final average body weight; for Average fat weight: intraperitoneal and perirenal fat; for Final average body weight: rats on nutrient feed. Also on record: Average fat weight coefficient: unit not given here. The text has this:
The experimental Study of Weight-Reducing on Pharmacodynamics
Same numbers of male and female weanling Sprague Dawley rats (clean grade, 43.3±8.5 g) were obtained from Laboratory Animal Center (Chongqing medical university, China) (Certificate of Approval for Environmental Facilities: SYXK (Yu) 20020007; Certificate of Approval for animal: SCXK (Yu) 20020001). 1.2 Medicine and Preparation: racemic compound hydrochloride of example 7, optical isomers of examples 8, 9, 10 and 11, and positive control Sibutramine Hydrochloride were dissolved in 1% CMC-Na. 1.3 Test Instrument: TGL-16 table model high speed centrifuge (Shanghai Medical Instruments Factory NO. 6); KDC centrifuge (Huicheng Radio Factory, Guangzhou); Sartorius electronic balance (GERMANY); Medical refrigerator temperature (SANYO, JAPAN); thermostat water bath tank (Beijing Xicheng district medical apparatus factory); VXH-3 Mini Vortex Mixer (Shanghai Yuejin Medical Apparatus Facotry). 1.4 Nutrition Feed: the recipe of nutrition feed and basal feed are as follows:
Barley flour 20%, dehydrated vegetable 10%, bean flour 20%, corn flour 16%, yeast 1%, wheat bran 16%, fish meal 10%, bone meal 5%, salt 2%.
In the 100 g basal feed, milk powder 10 g, lard 10 g, egg 1 piece, fresh bean sprouts 250 g, oleum jecoris piscis concentratum 10 drops (including VA 1700 u, VD1700 u) were added.
2.1 Establishment and Grouping of Obese Animal Model
Weanling SD rats were randomly allocated to compound groups with large, middle, small dosages; positive control Sibutramine Hydrochloride groups with large, middle, small dosages; and obese animal model group and blank control group (n=5/group for male; n=5/group for female).
The experimental animals in blank control group were feed with normal feed, and animals in other groups were feed with nutrient feed. All animals have abundant feed for 24 h and can eat casually.
Experimental animals in each group were administrated with corresponding drugs once a day at 9 am for 30 days, with a dosage of 1 ml/100 g body weight. The dosage corresponds to clinical dosage of 10 mg/person/day for Sibutramine, which is transformed according to the equivalent dosage between human and rat. Large dosage group adopts 1.2 mg/kg; middle dosage group adopts 0.6 mg/kg, and small dosage group adopts 0.3 mg/kg. Obese animal model group: […] of 1% CMC-Na solution; blank control group: […] of 1% CMC-Na solution.
Measurements were taken of daily body weight; general status; hair; eye, mouth and nose secretions; feces, urinate and activities.
Intraperitoneal and perirenal fat were weighted, and the fat weight coefficient was calculated by body weight.

For experiment [2] the following is noted: background statement; cited from earlier work.
Where [3] appears, read: large dosage 1.2 mg/kg once a day for 30 days.
The mark [4] stands for this setting: middle dosage 0.6 mg/kg once a day for 30 days.
[5] abbreviates: small dosage 0.3 mg/kg once a day for 30 days.

Results on six compounds are retold here after US8673981B2, “Phenylcyclobutylamide derivatives and their stereoisomers, the preparation processes and uses thereof” (priority 2008, dated 2014).

“Also recorded” adds a separate entry of the source.

With `CCC(C)C(N)C(=O)NC(CC(C)C)C1(c2ccc(Cl)cc2)CCC1.Cl` (racemic) [Example 7, 2-amino-N-{1-[1-(4-chlorophenyl)cyclobutyl]-3-methylbutyl}-3-methylvaleramide hydrochloride], in experiment [1] (setting [3]), the “Average added multiplier of body weight” value stood at 3.2, the “Average fat weight coefficient” value is recorded as 1.1, the Average fat weight turned out to be 2.0 g and the “Final average body weight” value came out at 176.2 g. In addition, in experiment [1] (setting [4]), the “Average added multiplier of body weight” value is 3.3, the “Average fat weight coefficient” value came out at 1.2, the Average fat weight is listed as 2.1 g and the “Final average body weight” value is recorded as 180.5 g. In experiment [1] (setting [5]), the “Average added multiplier of body weight” value is on record as 3.3, the “Average fat weight coefficient” value worked out at 1.2, the Average fat weight was 2.2 g and the “Final average body weight” value was found to be 186.9 g.
For `CC[C@H](C)[C@H](N)C(=O)N[C@@H](CC(C)C)C1(c2ccc(Cl)cc2)CCC1.Cl` [Example 8, (2S,3S)-2-amino-N-{(S)-1-[1-(4-chlorophenyl)cyclobutyl]-3-methylbutyl}-3-methylvaleramide hydrochloride], in experiment [1] (setting [3]), the “Average added multiplier of body weight” value stood at 3.0, the “Average fat weight coefficient” value is listed as 1.0, the Average fat weight was found to be 1.7 g and the “Final average body weight” value is 175.2 g. Further, in experiment [1] (setting [4]), the “Average added multiplier of body weight” value is 3.2, the “Average fat weight coefficient” value is 1.0, the Average fat weight is 1.9 g and the “Final average body weight” value stood at 185.6 g. In addition, in experiment [1] (setting [5]), the “Average added multiplier of body weight” value is 3.4, the “Average fat weight coefficient” value turned out to be 1.1, the Average fat weight worked out at 2.0 g and the “Final average body weight” value amounted to 188.9 g.
In the case of `CC[C@H](C)[C@H](N)C(=O)N[C@H](CC(C)C)C1(c2ccc(Cl)cc2)CCC1.Cl` [Example 9, (2S,3S)-2-amino-N-{(R)-1-[1-(4-chlorophenyl)cyclobutyl]-3-methylbutyl}-3-methylvaleramide hydrochloride], in experiment [1] (setting [3]), the “Average added multiplier of body weight” value is on record as 2.6, the “Average fat weight coefficient” value was found to be 0.9, the Average fat weight came to 1.4 g and the “Final average body weight” value amounted to 156.1 g. For the same compound, in experiment [1] (setting [4]), the “Average added multiplier of body weight” value was determined as 2.7, the “Average fat weight coefficient” value is given as 0.9, the Average fat weight is 1.5 g and the “Final average body weight” value turned out to be 167.9 g. In addition, the “Decrease of body weight compared with Sibutramine” value in experiment [1] (obese rats, 30 days) is on record as “decreased the body weight evidently”. In addition, in experiment [1] (obese rats, 30 days, among treatment groups and versus Sibutramine, hydrochloride), the “Effect of decreasing fat weight” value is “the best; also recorded: significantly better effect than Sibutramine”. Moreover, in experiment [1] (setting [5]), the “Average added multiplier of body weight” value is given as 2.8, the “Average fat weight coefficient” value is recorded as 0.9, the Average fat weight stood at 1.5 g and the “Final average body weight” value is given as 168.1 g.
As to `CC[C@@H](C)[C@@H](N)C(=O)N[C@@H](CC(C)C)C1(c2ccc(Cl)cc2)CCC1.Cl` [Example 10, (2R,3R)-2-amino-N-{(S)-1-[1-(4-chlorophenyl)cyclobutyl]-3-methylbutyl}-3-methylvaleramide hydrochloride], in experiment [1] (setting [3]), the “Average added multiplier of body weight” value is given as 3.0, the “Average fat weight coefficient” value was determined as 1.1, the Average fat weight is 1.9 g and the “Final average body weight” value is recorded as 173.9 g. In addition, in experiment [1] (setting [4]), the “Average added multiplier of body weight” value came out at 3.2, the “Average fat weight coefficient” value is 1.2, the Average fat weight is 2.0 g and the “Final average body weight” value is recorded as 180.4 g. For the same compound, in experiment [1] (setting [5]), the “Average added multiplier of body weight” value stood at 3.2, the “Average fat weight coefficient” value turned out to be 1.2, the Average fat weight was found to be 2.1 g and the “Final average body weight” value is 185.0 g.
With `CC[C@@H](C)[C@@H](N)C(=O)N[C@H](CC(C)C)C1(c2ccc(Cl)cc2)CCC1.Cl` [Example 11, (2R,3R)-2-amino-N-{(R)-1-[1-(4-chlorophenyl)cyclobutyl]-3-methylbutyl}-3-methylvaleramide hydrochloride], in experiment [1] (setting [3]), the “Average added multiplier of body weight” value came to 2.8, the “Average fat weight coefficient” value is listed as 1.1, the Average fat weight worked out at 1.8 g and the “Final average body weight” value is listed as 162.4 g. Besides, in experiment [1] (setting [4]), the “Average added multiplier of body weight” value is 3.0, the “Average fat weight coefficient” value is 1.1, the Average fat weight is on record as 1.9 g and the “Final average body weight” value is recorded as 173.2 g. In experiment [1] (setting [5]), the “Average added multiplier of body weight” value was 3.2, the “Average fat weight coefficient” value is listed as 1.2, the Average fat weight was determined as 2.1 g and the “Final average body weight” value was 181.0 g.
Turning to `CC(C)CC(N(C)C)C1(c2ccc(Cl)cc2)CCC1.Cl.O` (stereo not drawn) [Sibutramine, 1-(4-chlorophenyl)-N,N-dimethyl-α-(2-methylpropyl)cyclobutanemethanamine hydrochloride monohydrate, reference compound], in experiment [1] (setting [3]), the “Average added multiplier of body weight” value was 2.9, the “Average fat weight coefficient” value is 1.1, the Average fat weight turned out to be 1.9 g and the “Final average body weight” value amounted to 165.7 g. Also, in experiment [1] (setting [4]), the “Average added multiplier of body weight” value is reported as 3.2, the “Average fat weight coefficient” value amounted to 1.0, the Average fat weight is listed as 1.8 g and the “Final average body weight” value worked out at 183.2 g. Also, in experiment [1] (setting [5]), the “Average added multiplier of body weight” value is listed as 3.4, the “Average fat weight coefficient” value was 1.0, the Average fat weight is listed as 1.9 g and the “Final average body weight” value was determined as 185.7 g. In experiment [2], the “Reduction of basal weight” value is reported as 5%-10%.
